Assay results reported in publication PMC11921146, “Heterologous production of corosolic acid, a phyto-insulin, in agroinfiltrated Nicotiana benthamiana leaves” (Plant Biotechnology, 2024).

How the values were obtained:
Assay in all cases: transient co-expression in N. benthamiana leaves, GC-MS of leaf extracts
Type in all cases: cell-based
Settings in all cases: alpha-amyrin formed in situ by BfOSC3; co-expressed AtHMGR1cd-S577A and LjCPR2; C-28 oxidation
MtCYP716A12 [1] = biological target: T1, MtCYP716A12 (Medicago truncatula, UniProt Q2MJ20)
T1 construct: gene CYP716A12; full-length; transient expression in N. benthamiana leaves (pBYR2HS)
T1 sequence (Q2MJ20 whole entry, the tested form may be a part): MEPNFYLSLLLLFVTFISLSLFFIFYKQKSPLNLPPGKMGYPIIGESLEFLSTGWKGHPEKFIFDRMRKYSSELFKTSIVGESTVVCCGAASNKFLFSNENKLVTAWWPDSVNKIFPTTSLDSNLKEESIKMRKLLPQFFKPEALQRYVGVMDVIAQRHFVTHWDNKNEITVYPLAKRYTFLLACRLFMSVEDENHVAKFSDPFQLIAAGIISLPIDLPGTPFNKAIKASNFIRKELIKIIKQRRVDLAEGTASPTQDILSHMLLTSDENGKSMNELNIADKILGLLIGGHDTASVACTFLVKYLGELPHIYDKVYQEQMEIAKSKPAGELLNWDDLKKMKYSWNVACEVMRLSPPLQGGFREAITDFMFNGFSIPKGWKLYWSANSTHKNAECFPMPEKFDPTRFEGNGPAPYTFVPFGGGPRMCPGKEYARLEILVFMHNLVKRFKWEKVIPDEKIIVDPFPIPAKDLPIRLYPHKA

OeCYP716A48 = biological target: T2, OeCYP716A48 (Olea europaea, UniProt A0A090AQE0)
T2 construct: gene CYP716A48; full-length; transient expression in N. benthamiana leaves (pBYR2HS)
T2 sequence (A0A090AQE0 entry or part of it): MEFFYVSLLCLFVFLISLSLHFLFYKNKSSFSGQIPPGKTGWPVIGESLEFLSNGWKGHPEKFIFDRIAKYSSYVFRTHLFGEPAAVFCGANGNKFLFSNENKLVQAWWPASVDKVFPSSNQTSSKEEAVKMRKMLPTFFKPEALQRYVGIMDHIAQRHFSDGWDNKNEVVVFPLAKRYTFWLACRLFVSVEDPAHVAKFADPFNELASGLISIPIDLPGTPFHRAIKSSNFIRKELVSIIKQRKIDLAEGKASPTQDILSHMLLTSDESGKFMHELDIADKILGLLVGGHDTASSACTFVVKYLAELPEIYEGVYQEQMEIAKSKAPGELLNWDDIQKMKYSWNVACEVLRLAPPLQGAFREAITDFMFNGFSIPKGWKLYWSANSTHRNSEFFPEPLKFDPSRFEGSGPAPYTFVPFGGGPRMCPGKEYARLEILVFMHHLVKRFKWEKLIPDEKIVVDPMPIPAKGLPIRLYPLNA

MtCYP716A12 [2] = biological target: T3, MtCYP716A12 (Medicago truncatula, UniProt Q2MJ20, D122Q)
T3 construct: gene CYP716A12; full-length; transient expression in N. benthamiana leaves (pBYR2HS)
T3 sequence (Q2MJ20 whole entry D122Q, the tested form may be a part): as the sequence (Q2MJ20 whole entry, the tested form may be a part) above, with D122Q counted along it

MtCYP716A12 [3] = biological target: T4, MtCYP716A12 (Medicago truncatula, UniProt Q2MJ20, D122Q/Q358P)
T4 construct: gene CYP716A12; full-length; transient expression in N. benthamiana leaves (pBYR2HS)
T4 sequence (Q2MJ20 whole entry D122Q/Q358P, the tested form may be a part): as the sequence (Q2MJ20 whole entry, the tested form may be a part) above, with D122Q, Q358P counted along it

## C[C@H]1[C@H](C)CC[C@]2(C)CC[C@]3(C)C(=CC[C@@H]4[C@@]5(C)CC[C@H](O)C(C)(C)[C@@H]5CC[C@]43C)[C@H]12 [compound 1, α-amyrin]
MtCYP716A12 [1]
  transient co-expression in N. benthamiana leaves, GC-MS of leaf extracts: detected in the leaves expressing wild-type MtCYP716A12
OeCYP716A48
  transient co-expression in N. benthamiana leaves, GC-MS of leaf extracts: each of the candidate CYP716As were mixed and infiltrated into N. benthamiana leaves
MtCYP716A12 [2]
  transient co-expression in N. benthamiana leaves, GC-MS of leaf extracts: each of the candidate CYP716As were mixed and infiltrated into N. benthamiana leaves
MtCYP716A12 [3]
  transient co-expression in N. benthamiana leaves, GC-MS of leaf extracts: each of the candidate CYP716As were mixed and infiltrated into N. benthamiana leaves
